Structures can show the parent of a compound that is named as a salt.
Columns and labels:
Rat FAAH-1 = target: T1, Rat FAAH-1 (Rattus norvegicus, UniProt P97612); assay: Rat FAAH-1 assay (Assay Method 2), 3H-anandamide hydrolysis in cell homogenate; assay type: biochemical
T1 construct: expressed in transfected cells
T1 sequence (P97612 1-579): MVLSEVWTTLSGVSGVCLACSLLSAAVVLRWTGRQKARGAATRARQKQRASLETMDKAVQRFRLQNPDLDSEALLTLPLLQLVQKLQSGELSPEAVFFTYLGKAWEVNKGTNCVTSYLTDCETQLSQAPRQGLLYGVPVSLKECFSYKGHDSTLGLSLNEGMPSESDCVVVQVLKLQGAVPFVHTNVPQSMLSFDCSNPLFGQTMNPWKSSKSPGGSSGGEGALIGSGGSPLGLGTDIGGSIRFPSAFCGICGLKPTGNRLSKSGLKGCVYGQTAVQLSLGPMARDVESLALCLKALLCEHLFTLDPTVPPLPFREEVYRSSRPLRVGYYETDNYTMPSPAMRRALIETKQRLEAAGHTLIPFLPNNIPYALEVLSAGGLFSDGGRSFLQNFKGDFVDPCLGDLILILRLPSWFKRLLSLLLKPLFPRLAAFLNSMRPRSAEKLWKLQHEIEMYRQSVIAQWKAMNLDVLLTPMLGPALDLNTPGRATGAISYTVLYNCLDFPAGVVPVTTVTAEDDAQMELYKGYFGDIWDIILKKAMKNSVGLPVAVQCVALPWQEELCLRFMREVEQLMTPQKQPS
Protocol: A. Transfection of Cells with Rat FAAH-1
(§1) A 10-cm tissue culture dish with a confluent monolayer of SK-N-MC cells was split 2 days (d) prior to transfection. Using sterile technique, the media was removed and the cells were detached from the dish by the addition of trypsin. One fifth of the cells were then placed onto a new 10-cm dish. Cells were grown in a 37° C. incubator with 5% CO2 in Minimal Essential Media Eagle with 10% Fetal Bovine Serum. After 2 d, cells were approximately 80% confluent. These cells were removed from the dish with trypsin and pelleted in a clinical centrifuge. The pellet was re-suspended in 400 μL complete media and transferred to an electroporation cuvette with a 0.4 cm gap between the electrodes. Supercoiled rat FAAH cDNA (1 μg) was added to the cells and mixed. The voltage for the electroporation was set at 0.25 kV, and the capacitance was set at 960 μF. After electroporation, the cells were diluted into complete media (10 mL) and plated onto four 10-cm dishes. Because of the variability in the efficiency of electroporation, four different concentrations of cells were plated. The ratios used were 1:20, 1:10, and 1:5, with the remainder of the cells being added to the fourth dish. The cells were allowed to recover for 24 h before adding the selection media (complete media with 600 μg/mL G418). After 10 d, dishes were analyzed for surviving colonies of cells. Dishes with well-isolated colonies were used. Cells from individual colonies were isolated and tested.
(§2) The assay mixture consisted of 50 μL of the cell homogenate, 10 μL of the test compound, and 40 μL of anandamide [1-^3H-ethanolamine] (^3H-AEA, Perkin-Elmer, 10.3 Ci/mmol), which was added last, for a final tracer concentration of 80 nM. The reaction mixture was incubated at rt for 1 h. During the incubation, 96-well Multiscreen filter plates (catalog number MAFCNOB50; Millipore, Bedford, Mass., USA) were loaded with 25 μL of activated charcoal (Multiscreen column loader, catalog number MACL09625, Millipore) and washed once with 100 μL of MeOH. Also during the incubation, 96-well DYNEX MicroLite plates (catalog number NL510410) were loaded with 100 μL of MicroScint40 (catalog number 6013641, Packard Bioscience, Meriden, Conn., USA). After the 1 h incubation, 60 μL of the reaction mixture were transferred to the charcoal plates, which were then assembled on top of the DYNEX plates using Centrifuge Alignment Frames (catalog number MACF09604, Millipore). The unbound labeled ethanolamine was centrifuged through to the bottom plate (5 min at 2000 rpm), which was preloaded with the scintillant, as described above. The plates were sealed and left at rt for 1 h before counting on a Hewlett Packard TopCount.
(§3) Where activity is shown as greater than (>) a particular value, the value is the solubility limit of the compound in the assay medium or the highest concentration tested in the assay.

FAAH = target: T2, FAAH (Homo sapiens, UniProt O00519); assay: Human FAAH assay (Assay Method 1), 3H-anandamide hydrolysis in cell homogenate; assay type: biochemical; set-up: expressed in transfected cells; alternatively T84 frozen cell pellets (endogenous FAAH)
T2 sequence (O00519 1-579): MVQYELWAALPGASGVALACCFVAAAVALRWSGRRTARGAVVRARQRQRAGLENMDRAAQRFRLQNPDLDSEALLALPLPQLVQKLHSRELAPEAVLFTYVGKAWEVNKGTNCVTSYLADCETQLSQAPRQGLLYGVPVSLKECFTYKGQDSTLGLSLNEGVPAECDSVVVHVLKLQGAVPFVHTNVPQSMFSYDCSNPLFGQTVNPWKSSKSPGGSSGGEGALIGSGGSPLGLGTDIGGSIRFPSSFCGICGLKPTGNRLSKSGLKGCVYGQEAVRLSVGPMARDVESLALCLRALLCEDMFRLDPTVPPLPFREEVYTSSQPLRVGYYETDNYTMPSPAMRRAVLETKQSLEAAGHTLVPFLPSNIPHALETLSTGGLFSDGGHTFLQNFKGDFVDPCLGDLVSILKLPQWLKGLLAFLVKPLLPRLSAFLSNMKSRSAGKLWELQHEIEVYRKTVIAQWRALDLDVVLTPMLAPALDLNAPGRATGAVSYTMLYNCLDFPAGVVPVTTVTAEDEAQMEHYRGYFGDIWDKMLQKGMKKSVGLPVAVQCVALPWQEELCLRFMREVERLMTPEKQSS
Protocol: A. Transfection of Cells with Human FAAH
as §1, with “Supercoiled human” for “Supercoiled rat”
as §2, with “[1-3H-ethanolamine]” for “[1-^3H-ethanolamine]”
as §3

Compound	IC50 (Rat FAAH-1) [nM]	IC50 (FAAH) [nM]
N[C@H](CNc1cc(-c2ccc(C(F)(F)F)c(Cl)c2)ncn1)c1ccc2c(c1)OC(F)(F)O2 [Example 31, (1S)—N^2-[6-(3-Chloro-4-trifluoromethyl-phenyl)-pyrimidin-4-yl]-1-(2,2-difluoro-benzo[1,3]dioxol-5-yl)-ethane-1,2-diamine]	770	630
N[C@@H](CNc1cc(-c2ccc(C(F)(F)F)c(Cl)c2)ncn1)c1ccc2c(c1)OC(F)(F)O2 [Example 32, (1R)—N^2-[6-(3-Chloro-4-trifluoromethyl-phenyl)-pyrimidin-4-yl]-1-(2,2-difluoro-benzo[1,3]dioxol-5-yl)-ethane-1,2-diamine]	11	30
N#Cc1ccc([C@H](N)CNc2cc(-c3ccc(C(F)(F)F)c(Cl)c3)ncn2)cc1 [Example 33, (1S)-4-{1-Amino-2-[6-(3-chloro-4-trifluoromethyl-phenyl)-pyrimidin-4-ylamino]-ethyl}-benzonitrile]	1000	570
N#Cc1ccc([C@@H](N)CNc2cc(-c3ccc(C(F)(F)F)c(Cl)c3)ncn2)cc1 [Example 34, (1R)-4-{1-Amino-2-[6-(3-chloro-4-trifluoromethyl-phenyl)-pyrimidin-4-ylamino]-ethyl}-benzonitrile]	130	77
NC(CNc1cc(-c2ccc(C(F)(F)F)c(Cl)c2)ncn1)c1ccccc1F (stereo not shown) [Example 35, N^2-[6-(3-Chloro-4-trifluoromethyl-phenyl)-pyrimidin-4-yl]-1-(2-fluoro-phenyl)-ethane-1,2-diamine]	280	170
N[C@H](CNc1cc(-c2ccc(C(F)(F)F)c(Cl)c2)ncn1)c1cccc(F)c1 [Example 36, (1S)—N^2-[6-(3-Chloro-4-trifluoromethyl-phenyl)-pyrimidin-4-yl]-1-(3-fluoro-phenyl)-ethane-1,2-diamine, trifluoroacetic acid salt]	2600	1000
N[C@@H](CNc1cc(-c2ccc(C(F)(F)F)c(Cl)c2)ncn1)c1cccc(F)c1 [Example 37, (1R)—N^2-[6-(3-Chloro-4-trifluoromethyl-phenyl)-pyrimidin-4-yl]-1-(3-fluoro-phenyl)-ethane-1,2-diamine, trifluoroacetic acid salt]	110	39
N[C@H](CNc1cc(-c2ccc(C(F)(F)F)c(Cl)c2)ncn1)c1ccc(Cl)cc1 [Example 38, (1S)—N^2-1-(4-Chloro-phenyl)-[6-(3-chloro-4-trifluoromethyl-phenyl)-pyrimidin-4-yl]-ethane-1,2-diamine, trifluoroacetic acid salt]	2200	1600
N[C@@H](CNc1cc(-c2ccc(C(F)(F)F)c(Cl)c2)ncn1)c1ccc(Cl)cc1 [Example 39, (1R)—N^2-1-(4-Chloro-phenyl)-[6-(3-chloro-4-trifluoromethyl-phenyl)-pyrimidin-4-yl]-ethane-1,2-diamine, trifluoroacetic acid salt]	40	66
N[C@H](CNc1cc(-c2ccc(C(F)(F)F)c(Cl)c2)ncn1)c1ccc(F)c(F)c1 [Example 40, (1S)—N^2-[6-(3-Chloro-4-trifluoromethyl-phenyl)-pyrimidin-4-yl]-1-(3,4-difluoro-phenyl)-ethane-1,2-diamine, trifluoroacetic acid salt]	5000	1000
N[C@@H](CNc1cc(-c2ccc(C(F)(F)F)c(Cl)c2)ncn1)c1ccc(F)c(F)c1 [Example 41, (1R)—N^2-[6-(3-Chloro-4-trifluoromethyl-phenyl)-pyrimidin-4-yl]-1-(3,4-difluoro-phenyl)-ethane-1,2-diamine, trifluoroacetic acid salt]	60	20
N[C@H](CNc1cc(-c2ccc(C(F)(F)F)c(Cl)c2)ncn1)c1ccc(Cl)c(Cl)c1 [Example 42, (1S)—N^2-[6-(3-Chloro-4-trifluoromethyl-phenyl)-pyrimidin-4-yl]-1-(3,4-dichloro-phenyl)-ethane-1,2-diamine]	5000	8000
N[C@@H](CNc1cc(-c2ccc(C(F)(F)F)c(Cl)c2)ncn1)c1ccc(Cl)c(Cl)c1 [Example 43, (1R)—N^2-[6-(3-Chloro-4-trifluoromethyl-phenyl)-pyrimidin-4-yl]-1-(3,4-dichloro-phenyl)-ethane-1,2-diamine]	95	200
N[C@@H](CNc1cc(-c2ccc(C(F)(F)F)c(Cl)c2)ncn1)c1ccc(Cl)c(F)c1 [Example 45, (1R)—N^2-1-(4-Chloro-3-fluoro-phenyl)-[6-(3-chloro-4-trifluoromethyl-phenyl)-pyrimidin-4-yl]-ethane-1,2-diamine]	70	80
